Assay results published in US11441122B2, “Regulatory T cell epitopes” (EpiVax, Inc., priority 2017, dated 2022).
Where “and” joins values, the source holds several entries; their conditions need not be identical. Equal values may be shown once.

What was measured:
Class II HLA alleles = experiment: Soluble HLA competition binding assay, panel of five alleles (summary statements); design: species or system human
Method: HLA Binding Assay. Binding activity was analyzed at EpiVax (Providence, R.I.). The binding assay used (Steere A C et al., (2006), J Exp Med, 2003(4):961-71) yielded an indirect measure of peptide-MHC affinity. Soluble HLA molecules were loaded onto a 96-well plate with the unlabeled experimental Tregitopes and labeled control peptide. Once the binding mixture reached steady equilibrium (at 24 hours), the HLA-Tregitope complexes were captured on an ELISA plate coated with anti-human DR antibody and detected with a Europium-linked probe for the label (PerkinElmer, Waltham, Mass.). Time-resolved fluorescence measuring bound labeled control peptide is assessed by a SpectraMax® M5 unit (Spectramax, Radnor, Pa.). Binding of experimental Tregitopes was expressed as the percent inhibition of the labeled control peptide (experimental fluorescence/control fluorescence multiplied by 100).
The experimental Tregitopes were solvated in DMSO. The diluted Tregitopes were then mixed with binding reagents in aqueous buffering solution, yielding a range of final concentrations from 100,000 nM down to 100 nM. Tregitopes were then assayed against a panel of five common Class II HLA alleles: HLA-DRB1*0101, HLA-DRB1*0301, HLA-DRB1*0701, HLA-DRB1*1101, and HLA-DRB1*1501. […]

[1] = test system: CD4+ effector memory T cells; type: cell-based, human
[2] = test system: T cells in PBMCs from lupus patients; conditions: cited from earlier work
[3] = test system: CD4+CD25+ FoxP3+ regulatory T cells; type: cell-based, human

Sequence: EKDIHSGLIGPLLI (listed as Homo sapiens) [SEQ ID NO: 6]
- HLA binding profile (Class II HLA alleles): highly-restricted HLA binding profiles

Sequence: IHSIHFSGHVFTVRK (listed as Homo sapiens) [SEQ ID NO: 2]
- CD4+ T cell activation and proliferation of Teff responding to TT [1]: inhibited both CD4+ T cell memory responses
- CD4+ T cell activation reduced by [1]: 70% and 50%

Sequence: RIHMVYSKRSGKPRGYAFIEY (listed as Homo sapiens) [peptide 131-151]
- randomly selected lupus patients whose PBMCs contain T cells that proliferate in response to the peptide [2]: 40%

Sequence: FAVFDENKSWYLEDN (listed as Homo sapiens) [SEQ ID NO: 4]
- HLA binding profile (Class II HLA alleles): highly-restricted HLA binding profiles

Sequence: KIVFKNMASRPYSIY (listed as Homo sapiens) [SEQ ID NO: 3, Factor V derived peptide, used as negative control peptide]
- activated (CD25 high) proliferating (CFSE low) CD4 T cells stimulated by Tetanus Toxoid [1]: no significant inhibitory effect
- activated effector CD4+ T cells (CD4+/CD25-high/FoxP3-intermediate) reacting to Tetanus Toxoid [1]: no appreciable effect
- proliferation of CD4- cell population [1]: little inhibitory effect
- proliferation of total CD4+ T cells (CFSE low) [1]: little to no effect
- relative proportion of highly proliferative regulatory T cells (CFSE low FoxP3+) among CD25+ Granzyme B+ CD4+ T cells [3]: no significant effect
